Source: EP0640088B1, “NOVEL TRICYCLIC THIAZOLO AND THIAZINO DERIVATIVES AND ANTI-VIRAL MEDICAMENTS CONTAINING THEM” (BOEHRINGER MANNHEIM GMBH, priority 1992, dated 1993)

What follows are compounds tested against T1, RT aus HIV-1 (Human immunodeficiency virus type 1 group M subtype B, UniProt P04585) (assay: Inhibition of reverse transcriptase (RT), screening test system measuring [3H]-thymidine-5'-triphosphate incorporation). Conditions: not given.
T1 construct: die gereinigte RT aus HIV-1; made in house; host or cells: E. coli
Assay type: biochemical
From the text: Hemmung der Reversen Transkriptase (RT)
Das Screeningtestsystem beinhaltet die gereinigte RT aus HIV-1, die durch gentechnologische Methoden in E. coli exprimiert wurde, sowie die Komponenten des Initiationskomplexes, wie die in-vitro-Transkripte des HIV-LTR's mit der benachbarten Primer Binding Site als Template und einem zur Primer Binding Site komplementären 18mer Oligonukleotid als Primer. Gemessen wurde der [^3H]-Thymidin-5'-triphosphat-Einbau durch Auszählen im β-Counter.

SMILES | IC50
O=C1Nc2ccccc2C2(c3ccccc3)SCCN12 (stereo not shown) [Beispiel 1 b, 10b-Phenyl-2,3,6,10-tetrahydro-5H-thiazolo[3,2-c]quinazolin-5-on] | 470 nM
O=C1Nc2ccccc2C2(c3ccccc3)SCCCN12 (stereo not shown) [Beispiel 2, 11b-Phenyl-3,4,7,11b-tetrahydro-2H,6H-[1,3]thiazino[3,2-c]quinazolin-6-on] | 510 nM
Cc1cccc(C23SCCN2C(=O)Nc2ccccc23)c1 (stereo not shown) [Beispiel 5 b, 10b-(3-Methylphenyl)-2,3,6,10b-tetrahydro-5H-thiazolo[3,2-c]quinazolin-5-on] | 30 nM
Cc1cccc(C23SCCN2C(=O)Nc2ccccc23)n1 (stereo not shown) [Beispiel 5 f, 10b-(6-Methyl-2-pyridyl)-2,3,6,10b-tetrahydro-5H-thiazolo[3,2-c]quinazolin-5-on] | 200 nM
CN1C(=O)N2CCSC2(c2ccccc2)c2ccccc21 (stereo not shown) [Beispiel 6, 6-Methyl-10b-phenyl-2,3,6,10b-tetrahydro-5H-thiazolo [3,2-c]quinazolin-5-on] | 6200 nM
S=C1Nc2ccccc2C2(c3ccccc3)SCCN12 (stereo not shown) [Beispiel 7, 10b-Phenyl-2,3,6,10b-tetrahydro-5H-thiazolo[3,2-c]quinazolin-5-thion] | 30 nM

Same assay, conditions: purified recombinant RT from HIV-1 expressed in E. coli; HIV-LTR in-vitro transcript as template, 18mer oligonucleotide primer; [3H]-TTP incorporation, β-counter; read-out: Hemmung der HIV-RT IC50

SMILES | IC50
O=C1Nc2ccc(Cl)cc2C2(c3ccccc3)SCCN12 (stereo not shown) [Beispiel 4, 9-Chlor-10b-phenyl-2,3,6,10b-tetrahydro-5H-thiazolo[3,2-c]quinazolin-5-on] | 30 nM
